Columns and labels:
Escherichia coli DH5α = experiment: Antibiotic susceptibility (broth dilution in Muller-Hinton broth); type: cell-based
Method: (§1) Antibiotic susceptibility. The susceptibilities of bacterial strains to gentamicin (Sigma) were determined by broth dilution method in Muller-Hinton broth (Kadurugamuwa, J. L. et al, 1993 Antimicrob. Agents Chemother. 37:715-721). The MICs for PAO1, 8803, D2C, and DH5α were 2, 128 (10), 1.0, and 1.0 μg/ml, respectively.

[1] = test system: Staphylococcus aureus Newman D2C; experiment: as above; type: cell-based
Method: as §1

[2] = test system: P. aeruginosa strain ATCC 19660; experiment: Antibiotic susceptibility test (MIC of gentamicin by dilution in MHB); type: cell-based, Pseudomonas aeruginosa; conditions: strain ATCC 19660, dilution in MHB
Method: (§2) Antibiotic susceptibility test. The Minimum Inhibitory Concentrations (MICs) of gentamicin were determined by dilution in MHB. The MICs for strains H 103 and ATCC 19660 were 2 and 2.5 μg/ml, respectively.

[3] = test system: P. aeruginosa strain H 103; experiment: as above; type: cell-based, Pseudomonas aeruginosa; conditions: strain H 103, dilution in MHB
Method: as §2

P. aeruginosa 8803 [4] = experiment: Bactericidal activity (viable counting 0-5 h); type: cell-based, Pseudomonas aeruginosa; conditions: MVs 100 μg protein/ml, gentamicin 100 μg/ml, FIG. 23(d)
Method: (§3) Bacteriolytic activity. […] Exponential growth phase cultures grown in TSB were diluted in fresh TSB to produce a bacterial suspension of 10^8 CFU/ml.

P. aeruginosa PAO1 [5] = experiment: Bactericidal activity (viable counting 0-5 h); type: cell-based, Pseudomonas aeruginosa; conditions: MVs 100 μg protein/ml, gentamicin 2.5×MIC, FIG. 23(c)
Method: as §3

[6] = test system: intracellular S. flexneri; experiment: g-MV effect on intracellular S. flexneri in infected human colonic epithelial cells; type: cell-based, Shigella flexneri; conditions: FIG. 17
Method: Incubation of g-MVs (25 μg MV protein/25 cm^2 cover slip) with S. flexneri infected human colonic epithelial cells (10^7 CFU/25 cm^2 cover slip) (Kadurugamuwa et al, 1991 Infect. Immun. 59:3464-3471) inhibited the multiplication of intracellular bacteria by approximately 88% in the first hour of incubation (FIG. 17). […] Gentamicin could only enter these cells because it was packaged into a bilayered MV which could […] with the otherwise impermeable membrane and liberate its contents into the cytoplasm. Soluble antibiotic had no effect on growth of intracellular bacteria confirming the impermeability of eucaryotic cell membrane to the antibiotic (FIG. 17). […] The small effect of n-MVs on intracellular bacteria was presumably due to murein hydrolases in n-MVs.

P. aeruginosa 8803 [7] = experiment: Antibiotic susceptibility (broth dilution in Muller-Hinton broth); type: cell-based, Pseudomonas aeruginosa; conditions: 8803 (permeability-type gentamicin resistance)
Method: as §1

P. aeruginosa PAO1 [8] = experiment: as above; type: cell-based, Pseudomonas aeruginosa
Method: as §1

Substance: gentamicin
- MIC (Escherichia coli DH5α): 1.0 µg/mL
- MIC [1]: 1.0 µg/mL
- Minimum Inhibitory Concentration (MIC) [2]: 2.5 µg/mL
- Minimum Inhibitory Concentration (MIC) [3]: 2 µg/mL
- lytic effect on P. aeruginosa 8803 culture (P. aeruginosa 8803 [4]): (almost) direct correspondence between the control culture and the culture subjected to soluble gentamicin
- loss of viability of P. aeruginosa PAO1 (P. aeruginosa PAO1 [5]): exquisitely sensitive
- effect on growth of intracellular bacteria [6]: no effect
- MIC (P. aeruginosa 8803 [7]): 128 µg/mL
- MIC (P. aeruginosa PAO1 [8]): 2 µg/mL

From patent US6916478B2, “Vaccines and pharmaceutical compositions using membrane vesicles of microorganisms, and methods for preparing same” (priority 1995, dated 2005)
